{"source": "patent US20220347167A1", "about": "“A NEW TREATMENT FOR MEIBOMIAN GLAND DYSFUNCTION” (The Schepens Eye Research Institute, Inc., priority 2019, published 2022)", "test_system": "HIF1α", "experiment": "HIF1α expression in CoCl2-stimulated HepG2 cells (positive control for HIF1α antibody)", "assay_type": "cell-based, human", "details": "4 hours of CoCl2 treatment", "experimental": "After culture in DMEM/F12+10% FBS under normoxic conditions for 7 days, cells were exposed to 21% O2, 1% O2 and 10 μM Roxa, alone or in combination, for an additional 6 hours. The cells were lysed in 2× Laemmli sample buffer (Bio-Rad Laboratories, Hercules, Calif.) and sonicated to extract nuclear protein [Andersen et al. (2002) Current biology: CB 12:1-11]. Human hepatocellular carcinoma cell lines (HepG2 cells) (America Type Culture Collection, Manassas, Va.), which express high concentration of HIF1α under CoCl2 stimulation for 4 hours [Yoo et al. (2014) Journal of cellular biochemistry 115:1147-1158], were used as a positive control for HIF1α antibody. The CoCl2 was purchased from Sigma-Aldrich Corp (St. Louis, Mo.). Cell lysates were then evaluated for HIF1α (1:1000, BD Biosciences, San Jose, Calif.) or β-actin (1:10,000, Cell Signaling Technology) expression. Secondary antibodies were horseradish peroxidase (HRP)-conjugated goat anti-rabbit or goat anti-mouse IgG (both 1:5000, Sigma-Aldrich). Densitometry was performed using ImageJ (at the World Wide Web website of rsb.info.nih.gov/ij).", "data": [{"smiles": "[Cl-].[Cl-].[Co+2]", "note": "[CoCl2, cobalt (II) chloride]", "values": [{"measurement": "HIF1α protein in HepG2 cell lysates", "value": "substantial amounts of HIF1α protein"}]}]}
